According to ChEMBL document CHEMBL3885861, “Open TG-GATES”:

Species on record: Rattus norvegicus
Assay: Open TG-GATES - Regimen: Daily Repeat
Assay type: toxicity, organism-based, Sprague-Dawley
Set-up: regimen Daily Repeat, gender Male, age 6 weeks
Conditions: in vivo, sc, 0.2 mg/kg, route subcutaneous injection, dose 200 ug/Kg, dose level High; for APTT / Bas / Eos / Fbg / Hb / Ht / Lym / MCH / MCHC / MCV / Mono / Neu / PT / Plat / RBC / Ret / WBC: tissue Blood; for KIDNEY_L / KIDNEY_R / KIDNEY_TOTAL: tissue Kidney; for LIVER: tissue Liver; for A/G / ALP / ALT / AST / BUN / CRE / Ca / Cl / DBIL / GLC / IP / K / LDH / Na / PL / RALB / TBIL / TC / TG / TP / gamma-GTP: tissue Plasma

CC(=O)O.N=C(N)NCCC[C@@H](NC(=O)[C@@H]1CCCN1C(=O)[C@@H]1CSSCCC(=O)N[C@@H](Cc2ccc(O)cc2)C(=O)N[C@@H](Cc2ccccc2)C(=O)N[C@@H](CCC(N)=O)C(=O)N[C@@H](CC(N)=O)C(=O)N1)C(=O)NCC(N)=O [DESMOPRESSIN ACETATE]
TERMINAL_BW (72 h, time 3 day): 235.3 g | APTT (72 h, time 3 day): 17.2 s | Bas (72 h, time 3 day): 0% | Eos (72 h, time 3 day): 1% | Fbg (72 h, time 3 day): 258 mg/dL | Hb (72 h, time 3 day): 13.4 g/dL | Ht (72 h, time 3 day): 40.8% | Lym (72 h, time 3 day): 67.8% | MCH (72 h, time 3 day): 21.1 pg | MCHC (72 h, time 3 day): 32.8% | MCV (72 h, time 3 day): 64.3 fL | Mono (72 h, time 3 day): 11.8% | Neu (72 h, time 3 day): 18.8% | PT (72 h, time 3 day): 12.2 s | Plat (72 h, time 3 day): 126.8 x10_4/uL | RBC (72 h, time 3 day): 635.6 x10_4/ul | Ret (72 h, time 3 day): 6.8% | WBC (72 h, time 3 day): 73.8 x10_2/uL | KIDNEY_L (72 h, time 3 day): 1.1 g | KIDNEY_R (72 h, time 3 day): 1.1 g | KIDNEY_TOTAL (72 h, time 3 day): 2.2 g | LIVER (72 h, time 3 day): 10 g | A/G (72 h, time 3 day): 2 | ALP (72 h, time 3 day): 1277.4 IU/L | ALT (72 h, time 3 day): 32 IU/L | AST (72 h, time 3 day): 69.2 IU/L | BUN (72 h, time 3 day): 20 mg/dL | CRE (72 h, time 3 day): 0.4 mg/dL | Ca (72 h, time 3 day): 11.3 mg/dL | Cl (72 h, time 3 day): 102.8 meq/L | DBIL (72 h, time 3 day): 0.012 mg/dL | GLC (72 h, time 3 day): 196.4 mg/dL | IP (72 h, time 3 day): 7.6 mg/dL | K (72 h, time 3 day): 5.5 meq/L | LDH (72 h, time 3 day): 179.6 IU/L | Na (72 h, time 3 day): 136 meq/L | PL (72 h, time 3 day): 138.6 mg/dL | RALB (72 h, time 3 day): 3.7 g/dL | TBIL (72 h, time 3 day): 0.042 mg/dL | TC (72 h, time 3 day): 75.6 mg/dL | TG (72 h, time 3 day): 85.2 mg/dL | TP (72 h, time 3 day): 5.6 g/dL | gamma-GTP (72 h, time 3 day): 1 IU/L | TERMINAL_BW ([…], time 7 day): 258.6 g | TERMINAL_BW ([…], time 14 day): 323.7 g | TERMINAL_BW ([…], time 28 day): 400.9 g | APTT ([…], time 7 day): 18.6 s | Bas ([…], time 7 day): 0% | Eos ([…], time 7 day): 1% | Fbg ([…], time 7 day): 251.8 mg/dL | Hb ([…], time 7 day): 13.6 g/dL | Ht ([…], time 7 day): 41.4% | Lym ([…], time 7 day): 75% | MCH ([…], time 7 day): 20.7 pg | MCHC ([…], time 7 day): 32.9% | MCV ([…], time 7 day): 63.1 fL | Mono ([…], time 7 day): 8.2% | Neu ([…], time 7 day): 16.2% | PT ([…], time 7 day): 13.4 s | Plat ([…], time 7 day): 122 x10_4/uL | RBC ([…], time 7 day): 656.4 x10_4/ul | Ret ([…], time 7 day): 7.3% | WBC ([…], time 7 day): 112.4 x10_2/uL | APTT ([…], time 14 day): 17 s | Bas ([…], time 14 day): 0% | Eos ([…], time 14 day): 1.2% | Fbg ([…], time 14 day): 244.8 mg/dL | Hb ([…], time 14 day): 13.8 g/dL | Ht ([…], time 14 day): 42.7% | Lym ([…], time 14 day): 73.2% | MCH ([…], time 14 day): 20.5 pg | MCHC ([…], time 14 day): 32.4% | MCV ([…], time 14 day): 63.2 fL | Mono ([…], time 14 day): 8.2% | Neu ([…], time 14 day): 17.4% | PT ([…], time 14 day): 11.9 s | Plat ([…], time 14 day): 110.6 x10_4/uL | RBC ([…], time 14 day): 675.8 x10_4/ul | Ret ([…], time 14 day): 6.1% | WBC ([…], time 14 day): 104.8 x10_2/uL | APTT ([…], time 28 day): 18.9 s | Bas ([…], time 28 day): 0% | Eos ([…], time 28 day): 1% | Fbg ([…], time 28 day): 260.8 mg/dL | Hb ([…], time 28 day): 15 g/dL | Ht ([…], time 28 day): 45.6% | Lym ([…], time 28 day): 80.4% | MCH ([…], time 28 day): 18.8 pg | MCHC ([…], time 28 day): 32.8% | MCV ([…], time 28 day): 57.4 fL | Mono ([…], time 28 day): 6.4% | Neu ([…], time 28 day): 11.8% | PT ([…], time 28 day): 12.2 s | Plat ([…], time 28 day): 112.2 x10_4/uL | RBC ([…], time 28 day): 795.2 x10_4/ul | Ret ([…], time 28 day): 3.1% | WBC ([…], time 28 day): 95 x10_2/uL | KIDNEY_L ([…], time 7 day): 1.3 g | KIDNEY_R ([…], time 7 day): 1.3 g | KIDNEY_TOTAL ([…], time 7 day): 2.6 g | KIDNEY_L ([…], time 14 day): 1.5 g | KIDNEY_R ([…], time 14 day): 1.5 g | KIDNEY_TOTAL ([…], time 14 day): 3 g | KIDNEY_L ([…], time 28 day): 1.8 g | KIDNEY_R ([…], time 28 day): 1.8 g | KIDNEY_TOTAL ([…], time 28 day): 3.6 g | LIVER ([…], time 7 day): 11.3 g | LIVER ([…], time 14 day): 13.6 g | LIVER ([…], time 28 day): 14.7 g | A/G ([…], time 7 day): 2 | ALP ([…], time 7 day): 1056 IU/L | ALT ([…], time 7 day): 30.2 IU/L | AST ([…], time 7 day): 67.6 IU/L | BUN ([…], time 7 day): 21.2 mg/dL | CRE ([…], time 7 day): 0.4 mg/dL | Ca ([…], time 7 day): 13.2 mg/dL | Cl ([…], time 7 day): 98.8 meq/L | DBIL ([…], time 7 day): 0.014 mg/dL | GLC ([…], time 7 day): 200.8 mg/dL | IP ([…], time 7 day): 7.4 mg/dL | K ([…], time 7 day): 4.8 meq/L | LDH ([…], time 7 day): 169.6 IU/L | Na ([…], time 7 day): 129.8 meq/L | PL ([…], time 7 day): 130 mg/dL | RALB ([…], time 7 day): 3.6 g/dL | TBIL ([…], time 7 day): 0.042 mg/dL | TC ([…], time 7 day): 71.4 mg/dL | TG ([…], time 7 day): 90.2 mg/dL | TP ([…], time 7 day): 5.5 g/dL | gamma-GTP ([…], time 7 day): 1 IU/L | A/G ([…], time 14 day): 1.9 | ALP ([…], time 14 day): 1196.4 IU/L | ALT ([…], time 14 day): 31.8 IU/L | AST ([…], time 14 day): 69.2 IU/L | BUN ([…], time 14 day): 20.8 mg/dL | CRE ([…], time 14 day): 0.4 mg/dL | Ca ([…], time 14 day): 10.7 mg/dL | Cl ([…], time 14 day): 105.6 meq/L | DBIL ([…], time 14 day): 0.014 mg/dL | GLC ([…], time 14 day): 207 mg/dL | IP ([…], time 14 day): 7.5 mg/dL | K ([…], time 14 day): 5 meq/L | LDH ([…], time 14 day): 125.6 IU/L | Na ([…], time 14 day): 138.6 meq/L | PL ([…], time 14 day): 150.8 mg/dL | RALB ([…], time 14 day): 3.7 g/dL | TBIL ([…], time 14 day): 0.038 mg/dL | TC ([…], time 14 day): 75.6 mg/dL | TG ([…], time 14 day): 119.8 mg/dL | TP ([…], time 14 day): 5.7 g/dL | gamma-GTP ([…], time 14 day): 1 IU/L | A/G ([…], time 28 day): 1.6 | ALP ([…], time 28 day): 872.6 IU/L | ALT ([…], time 28 day): 28 IU/L | AST ([…], time 28 day): 62.8 IU/L | BUN ([…], time 28 day): 22 mg/dL | CRE ([…], time 28 day): 0.4 mg/dL | Ca ([…], time 28 day): 9.2 mg/dL | Cl ([…], time 28 day): 105.6 meq/L | DBIL ([…], time 28 day): 0.01 mg/dL | GLC ([…], time 28 day): 182.8 mg/dL | IP ([…], time 28 day): 6.5 mg/dL | K ([…], time 28 day): 4.8 meq/L | LDH ([…], time 28 day): 160 IU/L | Na ([…], time 28 day): 138.4 meq/L | PL ([…], time 28 day): 153.2 mg/dL | RALB ([…], time 28 day): 3.8 g/dL | TBIL ([…], time 28 day): 0.046 mg/dL | TC ([…], time 28 day): 88.4 mg/dL | TG ([…], time 28 day): 117.6 mg/dL | TP ([…], time 28 day): 6.1 g/dL | gamma-GTP ([…], time 28 day): 0.6 IU/L
